Experimental data taken from PMC7116001 (Science (New York, N.Y.), 2020).

Target: T1, S. acidocaldarius 20S proteasome (Saci_0613/Saci_0662ΔN/Saci_0909ΔN) (Sulfolobus acidocaldarius, UniProt Q4JAA8)
T1 sequence (Q4JAA8 11-203): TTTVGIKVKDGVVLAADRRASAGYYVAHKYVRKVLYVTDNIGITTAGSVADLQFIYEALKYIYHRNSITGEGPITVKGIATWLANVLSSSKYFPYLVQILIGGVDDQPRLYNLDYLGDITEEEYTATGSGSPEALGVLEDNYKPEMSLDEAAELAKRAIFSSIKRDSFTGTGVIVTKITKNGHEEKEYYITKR
T1 sequence (Q4JB24 1-242 partner): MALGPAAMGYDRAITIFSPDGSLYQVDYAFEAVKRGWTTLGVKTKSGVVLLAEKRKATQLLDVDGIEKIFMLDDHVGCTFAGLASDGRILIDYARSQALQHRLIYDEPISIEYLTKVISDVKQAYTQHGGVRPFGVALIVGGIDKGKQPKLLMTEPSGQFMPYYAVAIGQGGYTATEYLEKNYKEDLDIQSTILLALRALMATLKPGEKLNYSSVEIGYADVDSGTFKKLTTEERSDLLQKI
T1 sequence (Q4JAY3 7-195 partner): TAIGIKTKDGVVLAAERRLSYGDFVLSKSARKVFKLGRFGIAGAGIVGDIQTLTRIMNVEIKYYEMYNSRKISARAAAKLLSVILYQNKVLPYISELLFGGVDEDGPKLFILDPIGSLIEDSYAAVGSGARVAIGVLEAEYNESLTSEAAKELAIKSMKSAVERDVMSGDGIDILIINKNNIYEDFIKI
Experiment: degradation of Urm1
Format: biochemical
Details: substrate 3xUrm1-GFP; covalent (reversible boronate on Thr1, modelled)

CC(C)C[C@H](NC(=O)[C@H](Cc1ccccc1)NC(=O)c1cnccn1)B(O)O [bortezomib] was tested, and the “rate of substrate degradation” value was “with different concentrations of inhibitor, the rate of substrate degradation was diminished”.
